These results are taken from patent US8716297B2, “Chemical entities to be used for Wee1 inhibition for the treatment of cancer” (AbbVie Inc., priority 2011, dated 2014).

Each structure is given as a SMILES string.

T1 sequence (P30291 whole entry): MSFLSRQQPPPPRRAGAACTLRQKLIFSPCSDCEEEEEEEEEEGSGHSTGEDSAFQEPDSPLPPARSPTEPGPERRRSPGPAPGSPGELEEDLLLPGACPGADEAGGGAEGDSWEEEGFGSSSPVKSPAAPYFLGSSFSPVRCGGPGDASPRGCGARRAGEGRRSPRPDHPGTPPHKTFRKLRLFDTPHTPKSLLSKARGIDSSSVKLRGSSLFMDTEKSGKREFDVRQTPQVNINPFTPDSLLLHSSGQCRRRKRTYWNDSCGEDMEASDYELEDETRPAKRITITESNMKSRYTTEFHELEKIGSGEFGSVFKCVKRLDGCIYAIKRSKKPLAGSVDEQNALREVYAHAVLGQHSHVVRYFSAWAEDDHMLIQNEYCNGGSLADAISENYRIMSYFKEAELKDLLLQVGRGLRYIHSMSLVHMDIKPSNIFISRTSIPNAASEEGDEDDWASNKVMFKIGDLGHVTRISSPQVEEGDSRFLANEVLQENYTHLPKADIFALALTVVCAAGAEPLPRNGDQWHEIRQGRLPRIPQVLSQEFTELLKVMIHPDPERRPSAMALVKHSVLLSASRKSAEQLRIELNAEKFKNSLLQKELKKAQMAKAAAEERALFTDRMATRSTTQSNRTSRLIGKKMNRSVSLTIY

The assay concerns the target T1, GST-tagged-Wee1 kinase (Homo sapiens, UniProt P30291).
T1 construct: purchased Carnabio 05-177
In words: Wee1 time-resolved fluorescence equilibrium binding assay (displacement of Oregon Green-labeled ATP-competitive probe). The settings on record: TR-FRET probe displacement; 2 nM GST-Wee1, 300 nM probe, 1 hour incubation; read-out: Wee-1 binding (Ki nM). The procedure: Wee1 kinase was assayed using a time-resolved fluorescence equilibrium binding assay monitoring displacement of a rapidly reversible Oregon Green-labeled ATP-competitive kinase probe (N-(2-(2-(2-(4-(4-(5-chloro-4-(2-(1-hydroxycyclobutyl)thiazol-5-yl)-1H-pyrrolo[2,3-b]pyridin-2-yl)phenyl)piperazin-1-yl)ethoxy)ethoxy)ethyl)-2′,7′-difluoro-3′,6′-dihydroxy-3-oxo-3H-spiro[isobenzofuran-1,9′-xanthene]-5-carboxamide) by competitive Wee1 inhibitors.
The term Ki denotes a measure of affinity in units of concentration, obtained from inhibition or displacement. Regarding `C=CCN1c2c(C(=O)OC)cccc2-c2nc(Nc3ccc(N4CCN(C)CC4)cc3)ncc2S1(=O)=O` [Example 60, methyl 6-allyl-2-{[4-(4-methylpiperazin-1-yl)phenyl]amino}-6H-pyrimido[5,4-c][2,1]benzothiazine-7-carboxylate 5,5-dioxide], the Ki amounted to 9 nM.
For `CCCN1c2cc(-n3cccc3)ccc2-c2nc(Nc3ccc(N4CCN(C)CC4)cc3)ncc2S1(=O)=O` [Example 93, N-[4-(4-methylpiperazin-1-yl)phenyl]-6-propyl-8-(1H-pyrrol-1-yl)-6H-pyrimido[5,4-c][2,1]benzothiazin-2-amine 5,5-dioxide] the value was 45 nM.
With `C=CCN1c2ccccc2-c2nc(Nc3ccc(N4CCNCC4)cc3)ncc2S1(=O)=O` [Example 25, 6-allyl-N-[4-(piperazin-1-yl)phenyl]-6H-pyrimido[5,4-c][2,1]benzothiazin-2-amine 5,5-dioxide] the figure was 1.5 nM; with `C=CCN1c2ccccc2-c2nc(Nc3ccc(-c4nc5ccccc5[nH]4)cc3)ncc2S1(=O)=O` [Example 20, 6-allyl-N-[4-(1H-benzimidazol-2-yl)phenyl]-6H-pyrimido[5,4-c][2,1]benzothiazin-2-amine 5,5-dioxide], 283 nM.
For `C=CCN1c2cc(Br)ccc2-c2nc(Nc3ccc(N4CCN(C)CC4)cc3)ncc2S1(=O)=O` [Example 64, 6-allyl-8-bromo-N-[4-(4-methylpiperazin-1-yl)phenyl]-6H-pyrimido[5,4-c][2,1]benzothiazin-2-amine 5,5-dioxide] the value was 2 nM.
`CCCN1c2cc(-c3ccc(O)cc3)ccc2-c2nc(Nc3ccc(N4CCN(C)CC4)cc3)ncc2S1(=O)=O` [Example 75, 4-(2-{[4-(4-methylpiperazin-1-yl)phenyl]amino}-5,5-dioxido-6-propyl-6H-pyrimido[5,4-c][2,1]benzothiazin-8-yl)phenol]: the inhibition constant Ki amounted to 14 nM.
For `CCCN1c2cc(-c3ccccc3)ccc2-c2nc(Nc3ccc(N4CCN(C)CC4)cc3)ncc2S1(=O)=O` [Example 68, N-[4-(4-methylpiperazin-1-yl)phenyl]-8-phenyl-6-propyl-6H-pyrimido[5,4-c][2,1]benzothiazin-2-amine 5,5-dioxide] the value was 92 nM; for `C=CCN1c2ccccc2-c2nc(Nc3ccc(OCCN(CC)CC)cc3)ncc2S1(=O)=O` [Example 3, 6-allyl-N-{4-[2-(diethylamino)ethoxy]phenyl}-6H-pyrimido[5,4-c][2,1]benzothiazin-2-amine 5,5-dioxide], 4.8 nM; for `CCCN1c2ccc(-c3ccccc3CN(C)C)cc2-c2nc(Nc3ccc(N4CCN(C)CC4)cc3)ncc2S1(=O)=O` [Example 101, 9-{2-[(dimethylamino)methyl]phenyl}-N-[4-(4-methylpiperazin-1-yl)phenyl]-6-propyl-6H-pyrimido[5,4-c][2,1]benzothiazin-2-amine 5,5-dioxide], 7.6 nM.
For `COC(=O)c1ccc2c(c1)NS(=O)(=O)c1cnc(Nc3ccc(N4CCN(C)CC4)cc3)nc1-2` [Example 65, methyl 2-{[4-(4-methylpiperazin-1-yl)phenyl]amino}-6H-pyrimido[5,4-c][2,1]benzothiazine-8-carboxylate 5,5-dioxide] the value was 256 nM; for `C=CCN1c2ncccc2-c2nc(Nc3ccc(C4CCNC4)cc3)ncc2S1(=O)=O` (centres unmarked) [Example 45, 6-allyl-N-[4-(pyrrolidin-3-yl)phenyl]-6H-pyrido[2,3-c]pyrimido[4,5-e][1,2]thiazin-2-amine 5,5-dioxide], 3 nM.
For `C=CCN1c2ncccc2-c2nc(Nc3ccc4c(c3)CN(C)CC43CC3)ncc2S1(=O)=O` [Example 47, 6-allyl-N-(2′-methyl-2′,3′-dihydro-1′H-spiro[cyclopropane-1,4′-isoquinolin]-7′-yl)-6H-pyrido[2,3-c]pyrimido[4,5-e][1,2]thiazin-2-amine 5,5-dioxide] the value was 1.3 nM.
For the molecule `C=CCN1c2ccccc2-c2nc(Nc3ccc(N4CCOCC4)cc3)ncc2S1(=O)=O` [Example 16, 6-allyl-N-[4-(morpholin-4-yl)phenyl]-6H-pyrimido[5,4-c][2,1]benzothiazin-2-amine 5,5-dioxide], the Ki was determined as 7 nM.
For `C=CCN1c2ccccc2-c2nc(Nc3ccc(N4CCN(C(C)=O)CC4)cc3)ncc2S1(=O)=O` [Example 10, 1-(4-{4-[(6-allyl-5,5-dioxido-6H-pyrimido[5,4-c][2,1]benzothiazin-2-yl)amino]phenyl}piperazin-1-yl)ethanone] the value was 5 nM; for `CCCN1c2cc(-n3ccnc3)ccc2-c2nc(Nc3ccc(N4CCN(C)CC4)cc3)ncc2S1(=O)=O` [Example 92, 8-(1H-imidazol-1-yl)-N-[4-(4-methylpiperazin-1-yl)phenyl]-6-propyl-6H-pyrimido[5,4-c][2,1]benzothiazin-2-amine 5,5-dioxide], 14 nM.
For `C=CCN1c2ncccc2-c2nc(Nc3ccc4c(c3)CCNC4)ncc2S1(=O)=O` [Example 46, 6-allyl-N-(1,2,3,4-tetrahydroisoquinolin-6-yl)-6H-pyrido[2,3-c]pyrimido[4,5-e][1,2]thiazin-2-amine 5,5-dioxide] the value was 2 nM; for `C=CCN1c2ccccc2-c2nc(Nc3ccc(N4CCC(C)CC4)cc3)ncc2S1(=O)=O` [Example 9, 6-allyl-N-[4-(4-methylpiperidin-1-yl)phenyl]-6H-pyrimido[5,4-c][2,1]benzothiazin-2-amine 5,5-dioxide], 50 nM.
For `C=CCN1c2ccccc2-c2nc(Nc3ccncc3)ncc2S1(=O)=O` [Example 27, 6-allyl-N-(pyridin-4-yl)-6H-pyrimido[5,4-c][2,1]benzothiazin-2-amine 5,5-dioxide] the value was 30 nM; for `C=CCN1c2ncccc2-c2nc(Nc3ccc(N4CCCN(C)CC4)c(C)c3)ncc2S1(=O)=O` [Example 53, 6-allyl-N-[3-methyl-4-(4-methyl-1,4-diazepan-1-yl)phenyl]-6H-pyrido[2,3-c]pyrimido[4,5-e][1,2]thiazin-2-amine 5,5-dioxide], 1.1 nM.
As for `C=CCN1c2ncccc2-c2nc(Nc3ccc(N4CCNCC4)c(C)c3)ncc2S1(=O)=O` [Example 42, 6-allyl-N-[3-methyl-4-(piperazin-1-yl)phenyl]-6H-pyrido[2,3-c]pyrimido[4,5-e][1,2]thiazin-2-amine 5,5-dioxide], the inhibition constant Ki stood at 2 nM.
With `CCCN1c2cc(-c3cn[nH]c3)ccc2-c2nc(Nc3ccc(N4CCN(C)CC4)cc3)ncc2S1(=O)=O` [Example 70, N-[4-(4-methylpiperazin-1-yl)phenyl]-6-propyl-8-(1H-pyrazol-4-yl)-6H-pyrimido[5,4-c][2,1]benzothiazin-2-amine 5,5-dioxide] the figure was 5 nM; with `C=CCN1c2ncccc2-c2nc(Nc3ccc4c(c3)N(C)CCC4)ncc2S1(=O)=O` [Example 49, 6-allyl-N-(1-methyl-1,2,3,4-tetrahydroquinolin-7-yl)-6H-pyrido[2,3-c]pyrimido[4,5-e][1,2]thiazin-2-amine 5,5-dioxide], 45 nM.
For `C=CCN1c2ccccc2-c2nc(Nc3ccc(-c4nc5cnccc5[nH]4)cc3)ncc2S1(=O)=O` [Example 14, 6-allyl-N-[4-(1H-imidazo[4,5-c]pyridin-2-yl)phenyl]-6H-pyrimido[5,4-c][2,1]benzothiazin-2-amine 5,5-dioxide] the value was 1440 nM.
